The record followed here is patent US5585385A, “Heterocyclic compounds, their production and use as tachykinin reactor antagonists” (Takeda Chemical Industries, Ltd., priority 1993, dated 1996).

As usually defined, the pIC50 is the negative decadic logarithm of the IC50, by convention in mol/L. Low values mean a high IC50, high ones a low IC50. Broadly, the inhibition in vivo is how much of the control response was suppressed. Read a low inhibition in vivo as a response near the control.

pIC50: −log10 of the molar value.

Test [1] has as its target T1, substance P receptor (Homo sapiens, UniProt P25103).
T1 construct: The receptor was prepared from human lymphoblast cells (IM-9); endogenous in cells; host or cells: IM-9 human lymphoblast cells (crude membrane preparation)
Put plainly: Radioligand receptor binding inhibitory activity using receptor from human lymphoblast cells (IM-9), 125I-BHSP. Particulars: human IM-9 cell receptor, 25° C., 30 minutes, pH 7.4, n=1. The protocol:
Radioligand receptor binding inhibitory activity
Binding inhibitory activity using receptor from human lymphoblast cells (IM-9)
The method of A. Margaret "Molecular Pharmacology 42, p.458 (1992)" was modified and used. The receptor was prepared from human lymphoblast cells (IM-9). IM-9 cells (2×10^5 cells/ml) were inoculated and incubated for 3 days (one liter), which was then subjected to centrifuge for 5 minutes at 500×g to obtain cell pellets. The pellets were washed once with phosphate buffer (Flow Laboratories, CAT. No. 28-103-05), which were then crushed using Polytron.homogenizer "Kinematika, Germany" in 30 ml of 50 mM Tris-HCl buffer (pH 7.4) containing 120 mM sodium chloride, 5 mM potassium chloride, 2 μg/ml chymostatin, 40 μg/ml bacitracin, 5 μg/ml phosphoramidon, 0.5 mM phenylmethyl sulfonyl fluoride, 1 mM ethylenediamine tetra-acetic acid, which was subjected to centrifuge at 40,000×g for 20 minutes. The residue was washed twice with 30 ml of the above-mentioned buffer, which was then preserved frozen (-80° C.) as a specimen of the receptor.
The specimen was suspended in a reaction buffer (50 mM Tri-HCl buffer (pH 7.4), 0.02% bovine serum albumin, 1 mM phenylmethylsulfonyl fluoride, 2 μg/chymostatin, 40 μg/ml bacitracin, 3 mM manganese chloride) and 100 ul portion was the suspension was used in the reaction. After addition of the sample and ^125 I-BHSP (0.46 KBq), the reaction was allowed to proceed in 0.2 ml of reaction buffer at 25° C. for 30 minutes. The amount of nonspecific binding was determined by adding substance P at a final concentration of 2×10^-6 M. After the reaction, using a cell harvester (290 PHD, Cambridge Technology, Inc, U.S.A.), rapid filtration was carried out through a glass filter (GF/B, Whatman, U.S.A.) to stop the reaction. After washing three times with 250 ul of 50 mM of Tris-HCl buffer (pH 7.4) containing 0.02% bovine serum albumin, the radioactivity remaining on the filter was determined with a gamma counter. Before use, the filter was immersed in 0.1% polyethyleneimine for 24 hours and air-dried. […] (Radioligand means substance P labelled with ^125 I.) The number of this experiment is one.

The subject of test [2] is plasma extravasation induced by capsaicin in trachea. Put plainly: Inhibitory effect on plasma extravasation induced by capsaicin in trachea of guinea pigs. As to conditions: Cavia porcellus, iv, 5 min; 0.1 mg/kg i.v., 5 min before capsaicin (150 μg/kg i.v.), guinea pig trachea, n=6. The format is in vivo, guinea pigs (Hartley type white male). The protocol:
Inhibitory effect on plasma extravasation induced by capsaicin in trachea of guinea pigs
Guinea pigs (Hartley type white male guinea pigs), (n=6) were anesthetized with 35 mg/kg of pentobarbital injected intraperitoneally (i.p.), then test compounds were administered intravenously (i.v.). After 5 minutes, a mixed solution of capsaicin (150 μg/kg) and Evans' blue dye (20 mg/kg) was administered intravenously to cause reaction. Ten minutes later, test animals were sacrificed by cutting the aorta, then perfused through pulmonary artery with 50 ml of physiological saline. The trachea was excised, and its wet weight was measured. The trachea was incubated at room temperature in 1 ml of acetone-0.3% sodium sulfate (7:3) overnight and Evans' blue dye was extracted from the trachea. The extract solution was centrifuged at 2800 rpm for 5 minutes. The amount of Evans' blue dye in the supernatant was quantified by measuring absorbance at […].
Plasma extravasation was expressed in terms of the amount of Evans' blue dye (μg) relative to the weight of the trachea (g). The efficacy of the drug was evaluated by calculating the % inhibition in accordance with the following formula. [formula] A: the amount of Evan's blue dye (μg/g) in each test animal B: the mean amount of Evan's blue dye (μg/g) of the group untreated with capsaicin.
C: the mean amount of Evan's blue dye (μg/g) of control group

T1 sequence (P25103 whole entry): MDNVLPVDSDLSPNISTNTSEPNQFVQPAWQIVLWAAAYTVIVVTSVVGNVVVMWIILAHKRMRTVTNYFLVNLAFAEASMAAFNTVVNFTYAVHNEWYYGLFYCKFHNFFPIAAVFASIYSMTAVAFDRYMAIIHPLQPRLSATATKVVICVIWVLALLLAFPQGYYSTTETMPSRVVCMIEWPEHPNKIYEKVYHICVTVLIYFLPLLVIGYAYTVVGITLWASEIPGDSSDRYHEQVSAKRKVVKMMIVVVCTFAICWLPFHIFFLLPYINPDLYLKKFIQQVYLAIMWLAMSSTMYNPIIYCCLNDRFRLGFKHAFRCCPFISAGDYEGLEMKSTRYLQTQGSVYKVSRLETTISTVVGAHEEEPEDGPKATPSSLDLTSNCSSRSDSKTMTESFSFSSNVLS

Compound `COc1ccc(-c2c(C(=O)N(C)Cc3cc(C(F)(F)F)cc(C(F)(F)F)c3)n(C)c(=O)c3ncccc23)cc1` [Example 57, N-[3,5-Bis(trifluoromethyl)benzyl]-7,8-dihydro-5-(4-methoxyphenyl)-N,7-dimethyl-8-oxo-6-pyrido[3,4-b]pyridinecarboxamide] gave a pIC50 in test [1] of 8.42. This compound also yielded an inhibition in vivo at 0.1 mg/kg in test [2] of 51.4%.
